Measurements: patent EP4678638A1, “NEW E3 UBIQUITIN LIGASE LIGAND, PROTEIN DEGRADATION AGENT AND USE THEREOF” (priority 2023, dated 2024)

How the values were obtained:
MDA-MB-231 = test: CCK-8 proliferation, MDA-MB-231; format: cell-based; settings: Homo sapiens; Table B6, compounds designed based on the ALK inhibitors; MDA-MB-231 cells; read-out: Inhibitory activity (IC50, nM) on tumor cell proliferation, MDA-MB-231
Experimental: The tumor cells used herein were cultured in a cell culture medium listed in table A1 at 37°C in an incubator with 5% CO2. Prior to experimentation, all cell lines used were correctly identified by STR profiling, and tested negative for mycoplasma contamination using a mycoplasma detection kit through routine screenings. Table A1. Tumor cells and cell culture medium used in the present disclosure
IC50 values of the compounds of the present disclosure (including the compounds in Table 1, and compounds of examples) were measured using the Meilun Cell Counting Kit-8 kit from Dalian Meilun Biotech Co., Ltd. Assay details are as follows: tumor cells were seeded in a 96-well plate at a density listed in Table A2. After 24h, 100 µL of the inoculated cells were treated with 0.5µL of the compounds of the present disclosure (including the compounds in Tables 1 and 2, and compounds of examples) at 10 different successively decreasing concentrations (starting at the highest concentration of 10µM; 5-fold serial dilutions). After the cells were treated with the compounds of the present disclosure for a period of time, the cell viability detection reagent was added to the culture medium for cell viability assessment according to the instructions provided with the CCK-8 kit. […] The growth inhibition of the compounds of the present disclosure on cells was plotted by Prism Graphpad software, and the IC50 values of the compounds of the present disclosure were calculated therefrom. […] Seeding protocol and treatment time for tumor cells

H1975 = test: CCK-8 proliferation, NCI-H1975 (H1975); format: cell-based, Human; settings: Homo sapiens, NCI-H1975; Table B6, compounds designed based on the ALK inhibitors; H1975 cells; read-out: Inhibitory activity (IC50, nM) on tumor cell proliferation, H1975
Outline: (§1)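 Tumor cells were cultured at 37°C with 5% CO2, seeded, and after 24h treated with compounds at 10 concentrations starting at 10µM (5-fold serial dilutions).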

H2228 = test: CCK-8 proliferation, NCI-H2228 (H2228); format: cell-based; settings: Homo sapiens, NCI-H2228; Table B6, compounds designed based on the ALK inhibitors; H2228 cells; read-out: Inhibitory activity (IC50, nM) on tumor cell proliferation, H2228
Outline: as §1

SR = test: CCK-8 proliferation, SR; format: cell-based, Human; settings: Homo sapiens; Table B6, compounds designed based on the ALK inhibitors; SR cells; read-out: Inhibitory activity (IC50, nM) on tumor cell proliferation, SR
Outline: as §1

MCF7 = test: CCK-8 proliferation, MCF7 (MCF-7); format: cell-based; settings: Homo sapiens, MCF7; Table B6, compounds designed based on the ALK inhibitors; MCF-7 cells; read-out: Inhibitory activity (IC50, nM) on tumor cell proliferation, MCF-7
Outline: as §1

ALK = target: T1, ALK (Homo sapiens, UniProt Q96SW2+Q9HC35+Q9UM73); test: Western blot degradation of ALK (H2228 Cell); format: cell-based; settings: Table D5
T1 construct: evaluate the effects of the compounds of the present disclosure on the expression of target proteins in cells; endogenous in cells; host or cells: H2228
Outline: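 After compound exposure, cells were harvested and lysates run on SDS-PAGE, transferred to nitrocellulose and probed with antibodies. Remaining target (%) was computed from band grayscale relative to an internal control protein and normalised; degradation (%) was 100% minus that.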

[1] = target: T2, human Cereblon WT GST-tagged protein (Homo sapiens, UniProt Q96SW2); test: CRBN binding, HTRF (CEREBLON BINDING kit); settings: Table II-2, CRBN binding screening, HTRF; for inhibition at 0.5 µM: read-out: Inhibition rate (%) at 0.5µM; for inhibition at 2 µM: read-out: Inhibition rate (%) at 2 µM
T2 construct: purchased CISBIO 64BDCRBNPEH
Outline: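 After 3 h at room temperature, emission at 665 and 620 nm was measured in a homogeneous time-resolved fluorescence format. Compounds competed with a Thalidomide-Re probe for GST-tagged wild-type human CRBN, which was labelled with a Eu anti-GST antibody.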

MM.1S = test: CCK-8 proliferation, MM.1S; format: cell-based; settings: Homo sapiens, MM1.S; Table B6, compounds designed based on the ALK inhibitors; MM.1S cells; read-out: Inhibitory activity (IC50, nM) on tumor cell proliferation, MM.1S
Outline: as §1

T1 sequence (Q9HC35+Q9UM73 fused): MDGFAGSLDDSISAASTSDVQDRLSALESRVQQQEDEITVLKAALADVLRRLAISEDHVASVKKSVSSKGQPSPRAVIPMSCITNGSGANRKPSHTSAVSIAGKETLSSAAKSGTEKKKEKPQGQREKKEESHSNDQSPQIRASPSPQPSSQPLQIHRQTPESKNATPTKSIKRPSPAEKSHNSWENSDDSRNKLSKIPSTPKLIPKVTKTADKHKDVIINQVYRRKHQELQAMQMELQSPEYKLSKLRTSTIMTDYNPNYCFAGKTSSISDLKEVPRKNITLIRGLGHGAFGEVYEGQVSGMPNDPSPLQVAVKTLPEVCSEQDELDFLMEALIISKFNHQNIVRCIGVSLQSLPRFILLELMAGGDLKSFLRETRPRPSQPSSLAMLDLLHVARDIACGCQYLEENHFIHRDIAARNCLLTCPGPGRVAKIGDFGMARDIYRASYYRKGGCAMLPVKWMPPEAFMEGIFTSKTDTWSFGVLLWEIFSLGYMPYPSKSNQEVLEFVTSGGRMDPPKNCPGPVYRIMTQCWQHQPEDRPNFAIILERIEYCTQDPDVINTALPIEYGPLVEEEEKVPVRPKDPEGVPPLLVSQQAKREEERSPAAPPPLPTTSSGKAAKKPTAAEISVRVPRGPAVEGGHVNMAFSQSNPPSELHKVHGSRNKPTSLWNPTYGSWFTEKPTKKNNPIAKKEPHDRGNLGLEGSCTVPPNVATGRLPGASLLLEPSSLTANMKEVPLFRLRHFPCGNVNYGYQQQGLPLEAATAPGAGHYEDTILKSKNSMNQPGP
T1 sequence (Q96SW2 whole entry): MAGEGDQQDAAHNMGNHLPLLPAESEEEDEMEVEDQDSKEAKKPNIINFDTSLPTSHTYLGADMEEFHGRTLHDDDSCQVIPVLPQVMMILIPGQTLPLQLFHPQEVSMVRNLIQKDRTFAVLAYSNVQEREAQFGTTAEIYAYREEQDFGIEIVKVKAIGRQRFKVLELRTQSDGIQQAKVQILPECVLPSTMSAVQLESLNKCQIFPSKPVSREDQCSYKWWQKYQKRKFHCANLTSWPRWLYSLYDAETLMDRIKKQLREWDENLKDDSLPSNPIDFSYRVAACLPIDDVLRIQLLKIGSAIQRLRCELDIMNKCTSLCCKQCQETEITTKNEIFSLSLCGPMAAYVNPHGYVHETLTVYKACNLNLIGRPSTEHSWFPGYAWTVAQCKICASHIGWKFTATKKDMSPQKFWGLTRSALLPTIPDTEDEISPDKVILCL
T1 sequence (Q16531 whole entry partner): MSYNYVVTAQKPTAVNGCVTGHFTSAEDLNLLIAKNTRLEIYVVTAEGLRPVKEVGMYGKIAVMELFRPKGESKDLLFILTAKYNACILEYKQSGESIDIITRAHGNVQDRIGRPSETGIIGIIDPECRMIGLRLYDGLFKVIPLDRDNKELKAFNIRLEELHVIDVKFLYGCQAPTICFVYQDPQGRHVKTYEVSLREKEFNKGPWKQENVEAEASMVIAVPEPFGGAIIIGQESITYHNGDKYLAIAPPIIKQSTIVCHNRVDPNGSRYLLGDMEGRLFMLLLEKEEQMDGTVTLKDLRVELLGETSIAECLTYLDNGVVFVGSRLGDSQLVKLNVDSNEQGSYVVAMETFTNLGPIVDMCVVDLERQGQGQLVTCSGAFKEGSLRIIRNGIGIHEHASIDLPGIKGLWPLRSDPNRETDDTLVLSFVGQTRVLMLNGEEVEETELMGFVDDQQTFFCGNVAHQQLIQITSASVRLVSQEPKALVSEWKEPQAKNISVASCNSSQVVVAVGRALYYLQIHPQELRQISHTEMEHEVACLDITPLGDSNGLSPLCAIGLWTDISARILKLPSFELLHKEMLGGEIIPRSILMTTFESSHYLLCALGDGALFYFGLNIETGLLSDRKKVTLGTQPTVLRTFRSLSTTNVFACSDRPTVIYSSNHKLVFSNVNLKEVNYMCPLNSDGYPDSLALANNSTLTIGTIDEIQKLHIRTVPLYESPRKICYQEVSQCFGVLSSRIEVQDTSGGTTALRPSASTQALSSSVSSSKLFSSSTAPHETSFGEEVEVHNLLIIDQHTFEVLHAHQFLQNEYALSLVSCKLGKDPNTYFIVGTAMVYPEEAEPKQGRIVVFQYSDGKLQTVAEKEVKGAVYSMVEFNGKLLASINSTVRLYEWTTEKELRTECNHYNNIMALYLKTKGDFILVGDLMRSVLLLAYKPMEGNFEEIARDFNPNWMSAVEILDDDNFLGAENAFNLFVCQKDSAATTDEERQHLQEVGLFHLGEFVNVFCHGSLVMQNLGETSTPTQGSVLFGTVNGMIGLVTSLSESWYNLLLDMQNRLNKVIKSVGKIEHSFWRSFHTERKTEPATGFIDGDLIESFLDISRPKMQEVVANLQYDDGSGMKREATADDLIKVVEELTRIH
T2 sequence (Q96SW2 whole entry): as the sequence (Q96SW2 whole entry) above

IC50 (MDA-MB-231) [nM]	IC50 (H1975) [nM]	IC50 (H2228) [nM]	IC50 (MCF7) [nM]	inhibition at 0.5 µM [1] [%]	inhibition at 2 µM [1] [%]	IC50 (MM.1S) [nM]	SMILES	IC50 (SR) [nM]	Degradation of substrate protein ALK (substrate protein remaining %) (ALK)
500 to 1000	500 to 1000	100 to 500	100 to 500	–	–	–	COc1cc(N2CCC(N(C)Cc3cccc(NC4CCC(=O)NC4=O)c3)CC2)ccc1Nc1ncc(Cl)c(Nc2ccccc2P(C)(C)=O)n1 (stereo not shown) [GT-07692, 3-((3-(((1-(4-((5-chloro-4-((2-(dimethylphosphoryl)phenyl)amino)pyrimidin-2-yl)amino)-3-methoxyphenyl)piperidin-4-yl)(methyl)amino)methyl)phenyl)amino)piperidine-2,6-dione]	10 to 50	A (A is defined as 0% ≤ substrate protein remaining % ≤ 80%)
500 to 1000	500 to 1000	50 to 100	–	30 to 40	53 to 60	500 to 1000	COc1cc(N2CCC(N(C)Cc3ccc(C4CCC(=O)NC4=O)cc3)CC2)ccc1Nc1ncc(Cl)c(Nc2ccccc2P(C)(C)=O)n1 (stereo not shown) [GT-03603, 3-(4-(((1-(4-((5-chloro-4-((2-(dimethylphosphoryl)phenyl)amino)pyrimidin-2-yl)amino)-3-methoxyphenyl)piperidin-4-yl)(methyl)amino)methyl)phenyl)piperidine-2,6-dione]	1 to 10	A (A is defined as 0% ≤ substrate protein remaining % ≤ 80%)
100 to 500	100 to 500	10 to 50	100 to 500	–	–	500 to 1000	COc1cc(N2CCC(N(C)Cc3ccc(N4CCC(=O)NC4=O)cc3)CC2)ccc1Nc1ncc(Cl)c(Nc2ccccc2P(C)(C)=O)n1 [GT-07615, 1-(4-(((1-(4-((5-chloro-4-((2-(dimethylphosphoryl)phenyl)amino)pyrimidin-2-yl)amino)-3-methoxyphenyl)piperidin-4-yl)(methyl)amino)methyl)phenyl)dihydropyrimidine-2,4(1H,3H)-dione]	1 to 10	A (A is defined as 0% ≤ substrate protein remaining % ≤ 80%)
100 to 500	100 to 500	50 to 100	100 to 500	–	–	–	COc1cc(N2CCC(N3CCN(Cc4cccc(NC5CCC(=O)NC5=O)c4)CC3)CC2)ccc1Nc1ncc(Cl)c(Nc2ccccc2P(C)(C)=O)n1 (stereo not shown) [GT-07605, 3-((3-((4-(1-(4-((5-chloro-4-((2-(dimethylphosphoryl)phenyl)amino)pyrimidin-2-yl)amino)-3-methoxyphenyl)piperidin-4-yl)piperazin-1-yl)methyl)phenyl)amino)pip eridine-2,6-dione]	1 to 10	A (A is defined as 0% ≤ substrate protein remaining % ≤ 80%)
500 to 1000	100 to 500	10 to 50	100 to 500	–	–	500 to 1000	COc1cc(N2CCC(N3CCN(Cc4ccnc(N5CCC(=O)NC5=O)c4)CC3)CC2)ccc1Nc1ncc(Cl)c(Nc2ccccc2P(C)(C)=O)n1 [GT-07609, 1-(4-((4-(1-(4-((5-chloro-4-((2-(dimethylphosphoryl)phenyl)amino)pyrimidin-2-yl)amino)-3-methoxyphenyl)piperidin-4-yl)piperazin-1-yl)methyl)pyridin-2-yl)dihydropyrimidine-2,4(1H,3H)-dione]	1 to 10	A (A is defined as 0% ≤ substrate protein remaining % ≤ 80%)
500 to 1000	500 to 1000	100 to 500	500 to 1000	–	–	–	COc1cc(N2CCC(N(C)Cc3cncc(C4CCC(=O)NC4=O)c3)CC2)ccc1Nc1ncc(Cl)c(Nc2ccccc2P(C)(C)=O)n1 (stereo not shown) [GT-07699, 3-(5-(((1-(4-((5-chloro-4-((2-(dimethylphosphoryl)phenyl)amino)pyrimidin-2-yl)amino)-3-methoxyphenyl)piperidin-4-yl)(methyl)amino)methyl)pyridin-3-yl)piperidine-2,6-dione]	10 to 50	A (A is defined as 0% ≤ substrate protein remaining % ≤ 80%)
100 to 500	100 to 500	10 to 50	–	20 to 30	53 to 60	500 to 1000	COc1cc(N2CCC(N(C)Cc3ccc(C4CCC(=O)NC4=O)c(F)c3)CC2)ccc1Nc1ncc(Cl)c(Nc2ccccc2P(C)(C)=O)n1 (stereo not shown) [GT-03604, 3-(4-(((1-(4-((5-chloro-4-((2-(dimethylphosphoryl)phenyl)amino)pyrimidin-2-yl)amino)-3-methoxyphenyl)piperidin-4-yl)(methyl)amino)methyl)-2-fluorophenyl)piperidine-2,6-dione]	1 to 10	A (A is defined as 0% ≤ substrate protein remaining % ≤ 80%)
100 to 500	100 to 500	10 to 50	100 to 500	–	–	500 to 1000	COc1cc(N2CCC(N3CCN(Cc4cc(N5CCC(=O)NC5=O)ncc4F)CC3)CC2)ccc1Nc1ncc(Cl)c(Nc2ccccc2P(C)(C)=O)n1 [GT-07608, 1-(4-((4-(1-(4-((5-chloro-4-((2-(dimethylphosphoryl)phenyl)amino)pyrimidin-2-yl)amino)-3-methoxyphenyl)piperidin-4-yl)piperazin-1-yl)methyl)-5-fluoropyridin-2-yl)dihydropyrimidine-2,4(1H,3H)-dione]	1 to 10	A (A is defined as 0% ≤ substrate protein remaining % ≤ 80%)
500 to 1000	–	100 to 500	100 to 500	–	–	500 to 1000	Cc1cc(Nc2ncc(Cl)c(Nc3ccccc3S(=O)(=O)C(C)C)n2)c(OC(C)C)cc1C1CCN(Cc2ccc(C3CCC(=O)NC3=O)cc2)CC1 (stereo not shown) [GT-07364, 3-(4-((4-(4-((5-chloro-4-((2-(isopropylsulfonyl)phenyl)amino)pyrimidin-2-yl)amino)-5-isopropoxy-2-methylphenyl)piperidin-1-yl)methyl)phenyl)piperidine-2,6-dione]	10 to 50	A (A is defined as 0% ≤ substrate protein remaining % ≤ 80%)
500 to 1000	500 to 1000	50 to 100	500 to 1000	–	–	–	COc1cc(N2CCC(N3CCN(Cc4ccc(C5CCC(=O)NC5=O)cn4)CC3)CC2)ccc1Nc1ncc(Cl)c(Nc2ccccc2P(C)(C)=O)n1 (stereo not shown) [GT-07613, 3-(6-((4-(1-(4-((5-chloro-4-((2-(dimethylphosphoryl)phenyl)amino)pyrimidin-2-yl)amino)-3-methoxyphenyl)piperidin-4-yl)piperazin-1-yl)methyl)pyridin-3-yl)piperidine-2,6-dione]	1 to 10	A (A is defined as 0% ≤ substrate protein remaining % ≤ 80%)
